# Legend:
# recombinant USP1 protein = molecular target: T1, recombinant USP1 protein (Homo sapiens, UniProt O94782, DEL125-138/DEL229-408/DEL608-737); assay: Binding affinity to recombinant USP1 protein by differential scanning fluorimetry; conditions: compound 100 µM; 0.03 mg/mL USP1 (Δ1-66, Δ125-138, Δ229-408, Δ608-737); Tm with compound minus Tm with DMSO; read-out: ΔTm (°C)
# T1 sequence (O94782 with tags, fused parts or gaps DEL125-138/DEL229-408/DEL608-737): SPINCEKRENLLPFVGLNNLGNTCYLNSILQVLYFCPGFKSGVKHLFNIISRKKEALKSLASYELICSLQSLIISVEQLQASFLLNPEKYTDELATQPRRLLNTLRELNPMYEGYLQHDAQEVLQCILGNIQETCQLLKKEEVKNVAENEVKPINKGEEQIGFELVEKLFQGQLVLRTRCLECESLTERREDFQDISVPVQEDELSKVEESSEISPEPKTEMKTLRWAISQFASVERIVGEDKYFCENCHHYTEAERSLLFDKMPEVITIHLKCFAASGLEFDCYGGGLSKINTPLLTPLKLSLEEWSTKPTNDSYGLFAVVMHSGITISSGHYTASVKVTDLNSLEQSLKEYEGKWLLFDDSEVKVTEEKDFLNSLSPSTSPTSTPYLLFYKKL
# Method in brief: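 USP1 (Δ1-66, Δ125-138, Δ229-408, Δ608-737) at 0.03 mg/mL with dye in 50 mM Tris-HCl pH 8.0, 150 mM NaCl, 2% glycerol, 1 mM DTT; compounds at 100 µM final. Tm read on real-time PCR instrument; ΔTm = Tm with compound minus Tm with DMSO.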
# UWB1.289 cells = assay: Cell proliferation inhibitory activity in BRCA1/2-mutant or HRD-positive cells (Cell Titer-Glo); type: cell-based; conditions: UWB1289; UWB1.289 cells, 144 hours after compound treatment, Cell Titer-Glo, 1.5 nM to 10 µM; read-out: GI50 UWB1.289 BRCA1 mut
# Method in brief: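 UWB1.289 cells (1,000/well) in 50% MEBM/50% RPMI1640 exposed to […], final 1.5 nM to 10 µM, for 144 h at 37 °C. Viable cells measured by CellTiter-Glo luminescence; GI50 calculated.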
ΔTm at 100 µM (recombinant USP1 protein),Structure (SMILES),GI50 (UWB1.289 cells)
> 5 °C,"CCC1(NC(=O)c2cc3cnc(-c4c(OC)ncnc4C4CC4)nc3n2Cc2ccc(-c3nc(C(F)(F)F)cn3C(C)C)cc2)COC1 [Example 132, 2-(4-cyclopropyl-6-methoxypyrimidin-5-yl)-N-(3-ethyloxetan-3-yl)-7-(4-(1-isopropyl-4-(trifluoromethyl)-1H-imidazol-2-yl)benzyl)-7H-pyrrolo[2,3-d]pyrimidine-6-carboxamide]",< 100 nM
> 5 °C,"CNC(=O)c1cc2cnc(-c3c(OC)ncnc3C3CC3)nc2n1Cc1ccc(-c2nc(C(F)(F)F)cn2C)c(OC)c1 [Example 194, 2-(4-cyclopropyl-6-methoxypyrimidin-5-yl)-7-(3-methoxy-4-(1-methyl-4-(trifluoromethyl)-1H-imidazol-2-yl)benzyl)-N-methyl-7H-pyrrolo[2,3-d]pyrimidine-6-carboxamide]",100 to 500 nM
> 5 °C,"COc1ncnc(C2CC2)c1-c1ncc2cc(C(=O)Nc3ccccc3)n(Cc3ccc(-c4nc(C(F)(F)F)cn4C(C)C)cc3)c2n1 [Example 17, 2-(4-cyclopropyl-6-methoxypyrimidin-5-yl)-7-(4-(1-isopropyl-4-(trifluoromethyl)-1H-imidazol-2-yl)benzyl)-N-phenyl-7H-pyrrolo[2,3-d]pyrimidine-6-carboxamide]",< 100 nM
> 5 °C,"CNC(=O)c1cc2cnc(-c3c(OC)ncnc3C3CC3)nc2n1Cc1ccc(-c2nc(C(F)(F)F)cn2C)cc1 [Example 43, 2-(4-cyclopropyl-6-methoxypyrimidin-5-yl)-N-methyl-7-(4-(1-methyl-4-(trifluoromethyl)-1H-imidazol-2-yl)benzyl)-7H-pyrrolo[2,3-d]pyrimidine-6-carboxamide]",< 100 nM
> 5 °C,"COc1ncnc(C2CC2)c1-c1ncc2cc(C(=O)NCC(C)(C)N)n(Cc3ccc(-c4nc(C(F)(F)F)cn4C(C)C)cc3)c2n1 [Example 118, N-(2-amino-2-methylpropyl)-2-(4-cyclopropyl-6-methoxypyrimidin-5-yl)-7-(4-(1-isopropyl-4-(trifluoromethyl)-1H-imidazol-2-yl)benzyl)-7H-pyrrolo[2,3-d]pyrimidine-6-carboxamide]",< 100 nM
> 5 °C,"CNC(=O)c1cc2cnc(-c3c(OC)ncnc3C3CC3)nc2n1Cc1ccc(-n2nc(C(F)(F)F)cc2-c2ccco2)cc1 [Example 198, 2-(4-cyclopropyl-6-methoxypyrimidin-5-yl)-7-(4-(5-(furan-2-yl)-3-(trifluoromethyl)-1H-pyrazol-1-yl)benzyl)-N-methyl-7H-pyrrolo[2,3-d]pyrimidine-6-carboxamide]",100 to 500 nM
> 5 °C,"COc1ncnc(C2CC2)c1-c1ncc2cc(C(=O)N[C@@H](C)C(F)(F)F)n(Cc3ccc(-c4nc(C(F)(F)F)cn4C(C)C)cc3)c2n1 [Example 86, (S)-2-(4-cyclopropyl-6-methoxypyrimidin-5-yl)-7-(4-(1-isopropyl-4-(trifluoromethyl)-1H-imidazol-2-yl)benzyl)-N-(1,1,1-trifluoropropan-2-yl)-7H-pyrrolo[2,3-d]pyrimidine-6-carboxamide]",< 100 nM
> 5 °C,"COc1ncnc(C2CC2)c1-c1ncc2cc(C(=O)NC[C@H](C)OC)n(Cc3ccc(-c4nc(C(F)(F)F)cn4C(C)C)cc3)c2n1 [Example 135, (S)-2-(4-cyclopropyl-6-methoxypyrimidin-5-yl)-7-(4-(1-isopropyl-4-(trifluoromethyl)-1H-imidazol-2-yl)benzyl)-N-(2-methoxypropyl) -7H-pyrrolo[2,3-d]pyrimidine-6-carboxamide]",< 100 nM
> 5 °C,"CC[C@H](C)NC(=O)c1cc2cnc(-c3c(OC)ncnc3C3CC3)nc2n1Cc1ccc(-c2nc(C(F)(F)F)cn2C(C)C)cc1 [Example 82, (S)-N-(sec-butyl)-2-(4-cyclopropyl-6-methoxypyrimidin-5-yl)-7-(4-(1-isopropyl-4-(trifluoromethyl)-1H-imidazol-2-yl)benzyl)-7H-pyrrolo[2,3-d]pyrimidine-6-carboxamide]",< 100 nM

# Second part, the molecule before the results:
Structure (SMILES),ΔTm at 100 µM (recombinant USP1 protein),GI50 (UWB1.289 cells)
"COc1ncnc(C2CC2)c1-c1ncc2cc(C(=O)N[C@H]3CCN(C)C[C@H]3F)n(Cc3ccc(-c4nc(C(F)(F)F)cn4C)cc3)c2n1 [Example 162, 2-(4-cyclopropyl-6-methoxypyrimidin-5-yl)-N-((3R, 4S) -3-fluoro-1-methylpiperidin-4-yl)-7-(4-(1-methyl-4-(trifluoromethyl)-1H-imidazol-2-yl)benzyl)-7H-pyrrolo[2,3-d]pyrimidine-6-carboxamide]",> 5 °C,< 100 nM
"COc1ncnc(C2CC2)c1-c1ncc2cc(C(=O)N3CC[C@H](OC)C3)n(Cc3ccc(-c4nc(C(F)(F)F)cn4C(C)C)cc3)c2n1 [Example 128, (S)-(2-(4-cyclopropyl-6-methoxypyrimidin-5-yl)-7-(4-(1-isopropyl-4-(trifluoromethyl)-1H-imidazol-2-yl)benzyl)-7H-pyrrolo[2,3-d]pyrimidin-6-yl) (3-methoxypyrrolidin-1-yl)methanone]",> 5 °C,< 100 nM
"CNC(=O)c1cc2cnc(-c3cccc4c3N(C)CC4)nc2n1Cc1ccc(-c2nc(C(F)(F)F)cn2C)cc1 [Example 193, N-methyl-7-(4-(1-methyl-4-(trifluoromethyl)-1H-imidazol-2-yl)benzyl)-2-(1-methylindolin-7-yl)-7H-pyrrolo[2,3-d]pyrimidine-6-carboxamide]",< 5 °C,< 100 nM
"COc1ncnc(C2CC2)c1-c1ncc2cc(C(=O)NC[C@@H]3CCCO3)n(Cc3ccc(-c4nc(C(F)(F)F)cn4C(C)C)cc3)c2n1 [Example 124, (S)-2-(4-cyclopropyl-6-methoxypyrimidin-5-yl)-7-(4-(1-isopropyl-4-(trifluoromethyl)-1H-imidazol-2-yl)benzyl)-N-((tetrahydrofuran-2-yl)methyl)-7H-pyrrolo[2,3-d]pyrimidine-6-carboxamide]",> 5 °C,< 100 nM
"COc1ncnc(C2CC2)c1-c1ncc2cc(C(=O)N3CCC(N4CCOCC4)CC3)n(Cc3ccc(-c4nc(C(F)(F)F)cn4C(C)C)cc3)c2n1 [Example 14, (2-(4-cyclopropyl-6-methoxypyrimid in-5-yl)-7-(4-(1-isopropyl-4-(trifluoromethyl)-1H-imidazol-2-yl)benzyl)-7H-pyrrolo[2,3-d]pyrimidin-6-yl) (4-morpholinopipe ridin-1-yl)methanone]",> 5 °C,< 100 nM
"CNC(=O)c1cc2cnc(-c3cccnc3OC(F)F)nc2n1Cc1ccc(-c2nc(C(F)(F)F)cn2C(C)C)cc1 [Example 178, 2-(2-(difluoromethoxy)pyridin-3-yl)-7-(4-(1-isopropyl-4-(trifluoromethyl)-1H-imidazol-2-yl)benzyl)-N-methyl-7H-pyrrolo[2,3-d]pyrimidine-6-carboxamide]",> 5 °C,< 100 nM
"COc1ncnc(C2CC2)c1-c1ncc2cc(C(=O)N3CC(N(C)C)C3)n(Cc3ccc(-c4nc(C(F)(F)F)cn4C(C)C)cc3)c2n1 [Example 53, (2-(4-cyclopropyl-6-methoxypyrimid in-5-yl)-7-(4-(1-isopropyl-4-(trifluoromethyl)-1H-imidazol-2-yl)benzyl)-7H-pyrrolo[2,3-d]pyrimidin-6-yl) (3-(dimethylamino)azetidin-1-yl)methanone]",> 5 °C,< 100 nM
